This is an account of results in ChEMBL document CHEMBL4483862, “Open-source discovery of chemical leads for next-generation chemoprotective antimalarials” (2018).

SMILES strings stand for the structures. Some results are limits rather than exact numbers.

The assay deals with Plasmodium berghei. The assay can be described thus: Luciferase/luciferin-expressing antifolate-resistant parasites were used to infect a culture of HepG2 cells that were pre-incubated with compounds. Infected hepatocytes emit light due to the luciferase reaction. Assay results are presented as the percent inhibition of light emission compared to control. […]. In kind it is functional. Conditions: sporozoite; for IC90: read-out: LUCIFERASE INFECTION ASSAY - IC90.

Turning to `COc1cc(OC)cc(C(=O)NC(=S)N(Cc2ccccc2)C(C)C)c1`, the 90% effect concentration (IC90) (as a rule, the point of the concentration-response curve where the effect stands at 90%) is over 10 µM. Further, the IC50 (in general, the concentration that gives 50% inhibition) (PBLUC_HILL_SLOPE 14.1, PBLUC_R_SQUARED 0.0494, read-out: LUCIFERASE INFECTION ASSAY - IC50) was found to be 8.89 µM.
Turning to `Cc1ccsc1/C=C/c1ccc2cccc(O)c2n1`, the 90% effect concentration (IC90) was over 10 µM. Also, where the note is “PBLUC_HILL_SLOPE 14, PBLUC_R_SQUARED 0.406, read-out: LUCIFERASE INFECTION ASSAY - IC50”, the IC50 amounted to 9.41 µM.
Regarding `C/C(=N\Nc1nc2ccccc2[nH]1)c1ccc(Cl)s1`, the 90% effect concentration (IC90) was over 10 µM. The IC50 (PBLUC_HILL_SLOPE 13.6, PBLUC_R_SQUARED 0.0664, read-out: LUCIFERASE INFECTION ASSAY - IC50) was determined as 9.32 µM.
As to `CN(Cc1ccccc1NC(=O)/C=C/c1cnn(-c2ccccc2)c1)C1CCCCC1`, the 90% effect concentration (IC90) was over 10 µM. For the same compound, the concentration for half-maximal inhibition (IC50) (PBLUC_HILL_SLOPE 13.5, PBLUC_R_SQUARED 0.731, read-out: LUCIFERASE INFECTION ASSAY - IC50) came out at 8.68 µM.
With `OCc1ccccc1-c1cn2c(-c3ccc(Cl)cc3)cnc2cn1`, the IC90 came to 3.81 µM. In addition, where the note is “PBLUC_HILL_SLOPE 13.7, PBLUC_R_SQUARED 0.696, read-out: LUCIFERASE INFECTION ASSAY - IC50”, the IC50 came to 3.25 µM.
For the compound `O=C1C=CC(=O)N1Cc1ccc2c(c1)OCO2`, the 90% effect concentration (IC90) amounted to 13.4 µM. Further, the IC50 (PBLUC_HILL_SLOPE 13.6, PBLUC_R_SQUARED 0.619, read-out: LUCIFERASE INFECTION ASSAY - IC50) came out at 11.4 µM.
Take `CCn1c(SCc2csc(N(C(C)=O)c3cccc(C)c3)n2)nc2ccccc2c1=O`: the IC90 is over 10 µM. For the setting “PBLUC_HILL_SLOPE 13.6, PBLUC_R_SQUARED 0.153, read-out: LUCIFERASE INFECTION ASSAY - IC50”, the 50% inhibitory concentration (IC50) was over 10 µM.
`COC(=O)c1ccc(-c2cnc3ccc(NCc4cccc(Cl)c4)nn23)cc1`: the 90% effect concentration (IC90) was over 8.4 µM. The IC50 (PBLUC_HILL_SLOPE 14.1, PBLUC_R_SQUARED 0.0198, read-out: LUCIFERASE INFECTION ASSAY - IC50) was found to be 7.46 µM.
`Cn1cnnc1Sc1ccc(/C=C/c2nc3ccccc3[nH]2)cc1[N+](=O)[O-]`: the 90% effect concentration (IC90) was 3.92 µM. Besides, for the setting “PBLUC_HILL_SLOPE 13.5, PBLUC_R_SQUARED 0.706, read-out: LUCIFERASE INFECTION ASSAY - IC50”, the IC50 stood at 3.33 µM.
For the compound `COc1cccc(C(=O)c2c(-c3ccco3)c3c4n(c(-c5ccc(Cl)cc5)cn24)CCCC3)c1`, the 90% effect concentration (IC90) was over 10 µM. Where the note is “PBLUC_HILL_SLOPE 14.1, PBLUC_R_SQUARED 0.641, read-out: LUCIFERASE INFECTION ASSAY - IC50”, the IC50 came out at 9.18 µM.
On to `CC(C)(C)C(=O)CSc1nnc(Nc2ccc(Oc3ccccc3)cc2)s1`, for which the IC90 is over 10 µM. Further, the half-inhibitory concentration (IC50) (PBLUC_HILL_SLOPE 14.1, PBLUC_R_SQUARED 0.105, read-out: LUCIFERASE INFECTION ASSAY - IC50) amounted to 9.89 µM.
Regarding `Cc1sc2ncnc(Sc3nnc(-c4cccs4)n3-c3ccccc3)c2c1C`, the IC90 came out at 3.96 µM. The IC50 (PBLUC_HILL_SLOPE 13.8, PBLUC_R_SQUARED 0.706, read-out: LUCIFERASE INFECTION ASSAY - IC50) is 3.37 µM.
In the case of `O=C(CN1CCn2cccc2C1c1ccccc1)N1CCc2sccc2C1` (configuration not stated), the 90% effect concentration (IC90) is 4.34 µM. Where the note is “PBLUC_HILL_SLOPE 14, PBLUC_R_SQUARED 0.298, read-out: LUCIFERASE INFECTION ASSAY - IC50”, the half-inhibitory concentration (IC50) turned out to be 3.71 µM.
For the compound `CCC(C)c1ccc(-n2c(=O)c3ccccc3n3c(SCCc4ccncc4)nnc23)cc1` (configuration not stated), the IC90 was 9.16 µM. The half-maximal inhibitory concentration (IC50) (PBLUC_HILL_SLOPE 14.1, 1.41, PBLUC_R_SQUARED 0.703, 0.467, read-out: LUCIFERASE INFECTION ASSAY - IC50) stood at 5.1 µM.
Turning to `Cc1cc(C)cc(C(O)c2nc(-c3cccc4ccccc34)c[nH]2)c1` (configuration not stated), the IC90 was over 10 µM. In addition, under “PBLUC_HILL_SLOPE 13.8, PBLUC_R_SQUARED 0.489, read-out: LUCIFERASE INFECTION ASSAY - IC50”, the concentration for half-maximal inhibition (IC50) is 9.47 µM.
Take `Cc1cc(NC(=O)c2ccc(C)c(C)c2)n(-c2nc3ccccc3[nH]2)n1`: the IC90 was over 9.55 µM. Further, the concentration for half-maximal inhibition (IC50) (PBLUC_HILL_SLOPE 14, PBLUC_R_SQUARED 0.327, read-out: LUCIFERASE INFECTION ASSAY - IC50) was 8.17 µM.
For the compound `N#CC(C#N)=NNc1cc(F)c(Br)cc1F`, the IC90 turned out to be 4.79 µM. Also, where the note is “PBLUC_HILL_SLOPE 13.7, PBLUC_R_SQUARED 0.287, read-out: LUCIFERASE INFECTION ASSAY - IC50”, the 50% inhibitory concentration (IC50) was 4.08 µM.
As for `CN(CC(=O)Nc1ccc(Cl)c(S(=O)(=O)N2CCCCC2)c1)C1CCc2ccccc21` (configuration not stated), the IC90 is over 10 µM. In addition, the IC50 (PBLUC_HILL_SLOPE 13.6, PBLUC_R_SQUARED 0.21, read-out: LUCIFERASE INFECTION ASSAY - IC50) was 9.96 µM.
Consider `O=S(=O)(NCC(Sc1nnc(Nc2ccccc2)s1)c1ccccc1)c1ccc(Cl)cc1` (configuration not stated), for which the 90% effect concentration (IC90) is over 10 µM. Moreover, the IC50 (PBLUC_HILL_SLOPE 13.6, PBLUC_R_SQUARED 0.626, read-out: LUCIFERASE INFECTION ASSAY - IC50) is 9.35 µM.
Turning to `COc1ccc(O)c(C(=O)NNC(=O)C23CC4CC(CC(C4)C2)C3)c1`, the concentration for an effect of 90% (IC90) was over 10 µM. Further, the half-inhibitory concentration (IC50) (PBLUC_HILL_SLOPE 14.2, PBLUC_R_SQUARED 0.249, read-out: LUCIFERASE INFECTION ASSAY - IC50) came out at 8.74 µM.
For the compound `CN(CCCc1[nH]nc(N)c1C#N)c1nc(-c2ccccn2)nc2sc(-c3ccccc3)cc12`, the 90% effect concentration (IC90) is over 10 µM. Moreover, the 50% inhibitory concentration (IC50) (PBLUC_HILL_SLOPE 13.8, PBLUC_R_SQUARED 0.648, read-out: LUCIFERASE INFECTION ASSAY - IC50) is 8.54 µM.
`O=C(NCCSCc1csc2ccc(Cl)cc12)Nc1ccccc1`: the 90% effect concentration (IC90) is over 8.75 µM. Also, the IC50 (PBLUC_HILL_SLOPE 14.3, PBLUC_R_SQUARED 0.456, read-out: LUCIFERASE INFECTION ASSAY - IC50) turned out to be 8.24 µM.
In the case of `O=C(Nc1cccc(/C=C/c2ccc3cccc(O)c3n2)c1)C(F)(F)F`, the IC90 was over 10 µM. In addition, for the setting “PBLUC_HILL_SLOPE 13.5, PBLUC_R_SQUARED 0.34, read-out: LUCIFERASE INFECTION ASSAY - IC50”, the IC50 worked out at 8.84 µM.
Regarding `COc1cc(-c2cc(-c3ccccc3)cnc2N)ccc1O`, the IC90 is 4.45 µM. For the same compound, for the setting “PBLUC_HILL_SLOPE 13.8, PBLUC_R_SQUARED 0.558, read-out: LUCIFERASE INFECTION ASSAY - IC50”, the concentration for half-maximal inhibition (IC50) came to 3.8 µM.
Turning to `CCCc1c(Cc2c(F)cccc2Cl)c(=O)oc2cc(OC(=O)COC)ccc12`, the 90% effect concentration (IC90) turned out to be 3.31 µM. In addition, where the note is “PBLUC_HILL_SLOPE 13.6, PBLUC_R_SQUARED 0.599, read-out: LUCIFERASE INFECTION ASSAY - IC50”, the IC50 came out at 2.82 µM.
As to `COc1ccccc1C(=O)Nc1nonc1-c1ccc2c(c1)CCCC2`, the IC90 was over 9.45 µM. In addition, the half-maximal inhibitory concentration (IC50) (PBLUC_HILL_SLOPE 13.6, PBLUC_R_SQUARED 0.311, read-out: LUCIFERASE INFECTION ASSAY - IC50) is 9.15 µM.
On to `O=C(c1cccs1)N1CCN(c2cc(C(F)(F)F)nc3ccccc23)CC1`, for which the IC90 was 3.33 µM. For the same compound, the IC50 (PBLUC_HILL_SLOPE 13.8, PBLUC_R_SQUARED 0.566, read-out: LUCIFERASE INFECTION ASSAY - IC50) was 2.84 µM.
Consider `O=C(NC1CC1)c1ccc(CN(C(=O)Nc2cccc3ccccc23)C2CC2)cc1`, for which the IC90 is 4.41 µM. Further, the IC50 (PBLUC_HILL_SLOPE 14, PBLUC_R_SQUARED 0.411, read-out: LUCIFERASE INFECTION ASSAY - IC50) came to 3.77 µM.
For the compound `CN1CCN(S(=O)(=O)c2ccc(N3CCC(c4nc5ccccc5s4)CC3)nc2)CC1`, the IC90 is over 10 µM. For the same compound, the IC50 (PBLUC_HILL_SLOPE 13.7, PBLUC_R_SQUARED 0.493, read-out: LUCIFERASE INFECTION ASSAY - IC50) came out at 9.47 µM.
Turning to `CC(=O)Nc1ccc(NC(=O)/C(C#N)=C/c2c(Cl)cccc2Cl)cc1`, the IC90 is over 10 µM. Besides, under “PBLUC_HILL_SLOPE 14.2, PBLUC_R_SQUARED 0.281, read-out: LUCIFERASE INFECTION ASSAY - IC50”, the IC50 was 9.36 µM.
For `Cc1ccccc1-c1cnc2cnc(-c3ccc(CNc4ccccc4)cc3)cn12`, the concentration for an effect of 90% (IC90) was over 8.45 µM. Under “PBLUC_HILL_SLOPE 14.2, PBLUC_R_SQUARED 0.506, read-out: LUCIFERASE INFECTION ASSAY - IC50”, the IC50 amounted to 8.05 µM.
For `CC(C)(C)c1ccc2nc(/C(=C\c3ccc(F)cc3)NC(=O)c3ccccc3)[nH]c2c1`, the IC90 was over 7.98 µM. Moreover, the IC50 (PBLUC_HILL_SLOPE 14.3, PBLUC_R_SQUARED 0.247, read-out: LUCIFERASE INFECTION ASSAY - IC50) was 6.92 µM.
As for `CC(Nc1ccc2c(c1)Cc1ccccc1-2)C(=O)N1CCCC1` (configuration not stated), the IC90 is over 10 µM. The half-maximal inhibitory concentration (IC50) (PBLUC_HILL_SLOPE 13.8, PBLUC_R_SQUARED 0.568, read-out: LUCIFERASE INFECTION ASSAY - IC50) is 8.56 µM.
For `COc1ccccc1-c1nc2c3c(C)c(C)n(CCCO)c3ncn2n1`, the IC90 was over 9.39 µM. Also, for the setting “PBLUC_HILL_SLOPE 14, PBLUC_R_SQUARED 0.452, read-out: LUCIFERASE INFECTION ASSAY - IC50”, the IC50 was determined as 8.69 µM.
For `Cc1ccc2c(c1)C1CN(C)CCC1N2C(=O)c1sc2ccccc2c1Cl` (configuration not stated), the IC90 is 6.62 µM. For the same compound, for the setting “PBLUC_HILL_SLOPE 14.0, 2.64, PBLUC_R_SQUARED 0.410, 0.165, read-out: LUCIFERASE INFECTION ASSAY - IC50”, the IC50 is 3.64 µM.
As to `O=C1C=CC(=O)N1c1cccc(Br)c1`, the IC90 was over 13.1 µM. Moreover, for the setting “PBLUC_HILL_SLOPE 13.6, PBLUC_R_SQUARED 0.314, read-out: LUCIFERASE INFECTION ASSAY - IC50”, the half-maximal inhibitory concentration (IC50) is 12.9 µM.
